Each structure is given as a SMILES string. Where two headings read alike, the source gives them in different places.

Consider five compounds from patent publication EP2774915A1, “New derivatives of resveratrol” (Mattarei, Andrea, priority 2013, dated 2014).

The conditions of data set [1]: pH 5.
Method: (§1) Solubility in aqueous media. A calibration curve is constructed via HPLC analysis of a series of solutions of the compound of interest at known concentrations in a suitable solvent. A known amount (excess) of solid compound is placed in a 20-mL vial to which a 5 mL aliquot of 1 mM acetate buffer at pH 5 is then added. The contents are stirred at 25°C for 24 hours. After a 4-hour decantation period, 1 mL of the supernatant is filtered through a PTFE 0.45 µm filter, diluted with 2 v/v of acetonitrile and analyzed by HPLC. The entire procedure is repeated twice with the same sample, at 24-hour intervals, to verify the invariance of the result.
The nature of data set [2]: Solubility in aqueous media (excess solid stirred in buffer, HPLC of filtered supernatant). The conditions noted are these: 1 mM acetate buffer at pH 5, 25°C, 24 hours stirring.
Method: as §1
Data set [3] is described as follows: Stability to oxidation: reaction with DPPH radical, absorbance at 520 nm. As to conditions: 20 nmoles of DPPH in methanol, absorbance at 520 nm after 40 min (Fig. 5). The class given is physicochemical.
Method: At time zero, 20 nmoles of DPPH and the specified amount of resveratrol or of its derivative were mixed in methanol. Absorbance was measured after 40 min.
The susceptibility to oxidation can be assessed by studying c) the reaction with the 1,1-diphenyl-2-picrylhydrazyl (DPPH) radical.
DPPH is a stable free radical with an absorbance maximum at 520 nm (purple). Upon reaction with polyphenols it is converted to DPPHH (yellow) and this change of colour is an indication of the extent of the reaction which has taken place. The assays were conducted using 96-well plates following Fukumoto and Mazza (2000), measuring absorbance with a Tecan Infinite 200 plate reader.

For the compound `O=C(NC(Cc1ccccc1)C(=O)O)Oc1ccc(C=Cc2cc(OC(=O)NC(Cc3ccccc3)C(=O)O)cc(OC(=O)NC(Cc3ccccc3)C(=O)O)c2)cc1` (centres unmarked) [Resv(HOPhe-C)3, 3,4',5-tri-[N-(phenylalanyl)-carbamoyl]-resveratrol], the Solubility in water result in data set [1] is recorded as “below detection limit”. For `CNC(=O)Oc1ccc(C=Cc2cc(OC(=O)NC)cc(OC(=O)NC)c2)cc1` [Resv(Me-C)3, 3,4',5-tri-[N-methyl-carbamoyl]-resveratrol], in data set [2], the Solubility in water entry is on record as “below detection limit”. Consider `CCCCCCCCC=CCCCCCCCCNC(=O)Oc1ccc(C=Cc2cc(OC(=O)NCCCCCCCCC=CCCCCCCCC)cc(OC(=O)NCCCCCCCCC=CCCCCCCCC)c2)cc1` [Resv(Oleyl-C)3, 3,4',5-tri-[N-(octadec-9-enyl)-carbamoyl]-resveratrol], for which, in data set [1], the Solubility in water entry is on record as “below detection limit”.

On to `COCCOCCOCCNC(=O)Oc1ccc(C=Cc2cc(OC(=O)NCCOCCOCCOC)cc(OC(=O)NCCOCCOCCOC)c2)cc1` [Resv(TGME-C)3, 3,4',5-tri-[N-methoxytri-(ethyleneglycol)-carbamoyl] resveratrol], for which, in data set [3], the “reaction with DPPH” value is reported as “does not react at all with DPPH”. The same measure, in the same setting: for `Oc1ccc(C=Cc2cc(O)cc(O)c2)cc1` [resveratrol] the value was “stoichiometric oxidation”.
